Reference: US20230233617A1, “METHODS FOR DIFFERENTIATING STEM CELLS INTO DOPAMINERGIC PROGENITOR CELLS” (JZ CELL TECHNOLOGIES AB, priority 2020, published 2023)
“Also recorded” adds a separate entry of the source.

What was measured:
hPSC-derived NSCs = experiment: Ventral regional identity of hPSC-derived NSCs at 9 DDC in dSMADi+SAG conditions (NKX2.1, LMX1A, PHOX2B, NKX2.2); assay type: cell-based, human; conditions: for identity of NSCs / identity imposed by RA analogue: dSMADi+SAG; for identity of NSCs / identity imposed by RA analogue / identity of cells after inhibiting CYP26 activity: 9 DDC; for identity imposed by RA analogue with inhibition of CYP26 activity: 500 nM analogue for 48-hours plus 500 nM R115866, 9 DDC; for identity imposed by RA analogue: 500 nM for 48-hours
β-catenin = experiment: β-CATENIN nuclear levels in cultures at 2 DDC; assay type: cell-based, human; conditions: dSMADi+SAG
Description: FIG. 2: Specification of NSC with ventral midbrain identity using RA and SHH signaling. (a) Schematic of hPSCs differentiation with timeline of treatment with RA and activator of SHH signaling (SAG) (top). Immunocytochemistry for indicated markers at 9 DDC in cultures differentiated in dSMADi+SAG-condition and pulsed with RA for 1-, 2- or 4-days (bottom). (b) Relative gene expression (FPKM) of indicated genes in 9 DDC cultures differentiated in dSMADi+SAG-conditions and treated with RA for the indicated time. (c) Heatmap and hierarchical clustering of differentially expressed genes of 9 DDC cultures differentiated in dSMADi+SAG-condition and treated with RA for the indicated time. (d) Schematic of gene expression profiles defining distinct ventral progenitors in the diencephalon (Di), midbrain (MB) and hindbrain (HB) positions. (e) Expression of genes associated with the indicated regional progenitors at 14 DDC in cultures differentiated in dSMADi+SAG+RA^2D condition. (f) Immunocytochemistry for β-CATENIN (left) and boxplots of β-CATENIN nuclear levels (right) in cultures at 2 DDC differentiated in dSMADi+SAG-condition (control) and treated with RA or CHIR99021. Boxplot, whiskers define 5th and 95th percentile. Asterisks, Student t test; **p<0.01, ***p<0.001. (g) Immunocytochemistry for the indicated markers in cultures at 14 DDC differentiated in dSMADi+SAG+RA^2D condition. […]

[1] = tested on: hPSC-derived vMB progenitors; experiment: Neurogenesis and mDA neuron yield in differentiating hPSC cultures (HuCD, TuJ1, TH, GABA immunocytochemistry, electrophysiology); assay type: cell-based, human; conditions: with SAG
Description: A unique feature of mDA neurons is that they originate from initially non-neuronal floor plate (FP) cells at the ventral midline of the MB, and progenitors must acquire neuronal potential prior to differentiation into neurons^30,44. Few markers distinguish between these states, but downregulation of SHH and upregulation pro-neural bHLH proteins over time correlate with this transition^44. […] In RA^2D+SAG cultures at 21 DDC, ˜30% of DAPI^+ cells accounted for HuCD^+ neurons (FIG. 4d) and many of these had initiated expression of TH (FIG. 4c). When we instead used CHIR99021+SAG to specify LMX1A^+/NKX2.1^− vMB progenitors (FIG. 3b), cells initiated neurogenesis at around 17 DDC (FIG. 4c, d) which is consistent with previous studies^9,13. At 21 DDC, HuCD^+ neurons constituted ˜10% of total cells and few neurons expressed TH (FIG. 4c, d).
TH^+ neurons acquired a progressively more advanced neuronal morphology with a progressive outgrowth of TH^+ axonal processes in RA^2D+SAG cultures between 30-45 DDC (FIG. 4e, g, h; FIG. 8f (Supplementary FIG. 2f)). TH^+ neurons expressed mDA neuron markers LMX1A, LMX1B, FOXA2, NURR1, and OTX2 at 30-35 DDC (FIG. 4e). […] TH^+ neurons also expressed the mature neuronal marker SYNAPTOPHYSIN and the monoaminergic marker VMAT2 (FIG. 40. A subset of cells expressed GIRK2 or CALBINDIN indicating the presence of both A9- and A10-like subtypes of mDA neurons^45 (FIG. 4f). At 35 DDC, ˜80% of neurons expressed TH^+ which corresponded to ˜65% of total DAPI^+ cells (FIG. 4i, j). ˜10% of neurons expressed GABA (FIG. 4i, j), and some of these co-expressed TH (FIG. 10c (Supplementary FIG. 4c)). Only rare neurons expressing 5-HT or the MN marker PERIPHERIN were detected (FIG. 4i, j). High performance liquid chromatography (HPLC) analyses at 42 DDC established that neurons produced and released dopamine (FIG. 4k, I) but not serotonin (5-HT) or noradrenaline (NA) (FIG. 4k). […] Very few cells expressed Ki67 or phospho-histone H3 at 35-40 DDC indicating low mitotic activity after long-term culturing of cells (FIG. 4i). Functional maturation of mDA neurons in vitro can be monitored by determining the time when hPSC-derived mDA neurons acquire spontaneous action potentials, evoked action potentials and voltage-dependent Na^+ and K^+ currents, and these traits were previously reported to be attained after ˜60 days of culture of FACS-enriched mDA neurons (25+36 days: before/after sorting) using current state-of-the-art protocols^7. […] Neurons showing both spontaneous (FIG. 4m) and evoked action potentials (FIG. 4n) could be recorded at 40 DDC.
80-90% confluent PSCs cultures were rinsed twice with PBS, treated with EDTA (0.5 mM in PBS) for 5-7 min, and resuspended into single cell suspension in PBS. Cells were spin down at 400 g and resuspended in N2B27 medium (DMEM/F12: Neurobasal (1:1), 0.5×N2 and 0.5×B27 (plus vitamin A) supplements, 1×nonessential amino acids, 1% GlutaMAX, 55 μM β-mercaptoethanol-all from Thermo Fisher Scientific) containing 5 μM SB431542 (Miltenyi Biotech) and 2.5 μM DMH1 (Santa Cruz Biotech) (dual SMAD inhibition), and 10 μM ROCK inhibitor (for the first 48 hours after seeding). Cells were seeded on VTN (2 μg/cm^2) and Fibronectin (FN) (2 μg/cm^2) (Sigma) coated surface at a density of 60,000-80,000 cells/cm^2 for RA- and RA-analogues based experiments, and 20,000 cells/cm^2 for CHIR99021 experiments. SAG1.3 (Santa Cruz Biotechnology), CHIR99021 (Miltenyi Biotech), all-trans RA, 9-cis RA, 13-cis RA, Tazarotenic acid, R115866 (all Sigma), EC23 (Amsbio) were used at concentrations and time points described in the result section. For mDA neuron differentiation (see schematic drawing FIG. 4) neural progenitors were mechanically dissociated at 9 DDC with Stem Cell Passaging Tool (Thermo Fisher Scientific) and seeded at 1:3 ratio in N2B27 medium containing 10 μM ROCK inhibitor (for first 48 hours after dissociation) on VTN and FN coated surfaces. […]

[2] = tested on: hPSC-derived ventral midbrain dopaminergic progenitors; experiment: Specification of caudal midbrain identity (EN1 immunocytochemistry); assay type: cell-based, human; conditions: RA^2D+SAG plus 5 μM CHIR99021 between 4-9DDC
Procedure: (a) (a) Immunocytochemical analysis of ventral MB progenitor identities at 14 DDC. […] Nuclei of cells visualized with DAPI staining. (b) Immunocytochemistry of dopaminergic neuron marker TH and caudal midbrain marker EN1 expression in 40 DDC cultures differentiated in indicated conditions.
Cells were fixed for 12 min at room temperature (RT) in 4% paraformaldehyde in PBS, rinsed 3 times in PBST (PBS with 0.1% Triton-X100), and blocked for 1 hour at RT with blocking solution (3% FCS/0.1% Triton-X100 in PBS). Cells were then incubated with primary antibodies overnight at 4° C., followed by incubation with fluorophore-conjugated secondary antibodies for 1 hour at RT. Both primary and fluorophore-conjugated secondary antibodies were diluted in blocking solution. Primary antibodies used are listed in Supplementary Table 1. Appropriate Alexa (488, 555, 647)-conjugated secondary antibodies (Molecular Probes) were used.
Mechanisms underlying specification of midbrain dopamine neuron subtypes remains poorly resolved, but is likely to involve sub-patterning of ventral midbrain dopaminergic progenitors along the mediolateral and rostro-caudal axes of the midbrain (Brignani, S, and Pasterkamp, R. J., Front. Neuroanat. 11, 1-18 (2017)). WNT1 signaling emanating from the isthmic organizer at the midbrain-hindbrain boundary establish polarity of midbrain progenitors along the rostro-caudal axis by inducing a caudal^HIGH-to-rostral^LOW expression gradient of the homeodomain proteins EN1 and EN2 (Wurst, W. and Bally-Cuif, L. Nat. Rev. Neuroscience 2, 99-108 (2001)).

CYP26 = conditions: cited from earlier work

Cc1c[nH]c(-c2cnc(NCCNc3ccc(C#N)cn3)nc2-c2ccc(Cl)cc2Cl)n1 [CHIR99021]
identity of NSCs (hPSC-derived NSCs; 1 μM): LMX1A^+/NKX2.1^− identity
identity of NSCs (hPSC-derived NSCs; 0.8 and 0.6 μM): diencephalic LMX1A^+/NKX2.1^+ character
identity of NSCs (hPSC-derived NSCs; 1.2 and 1.4 μM): NKX2.2^+/LMX1A^− presumptive HB identity
β-catenin in nuclei (β-catenin): translocation of β-catenin into nuclei
HuCD+ neurons as share of total DAPI+ cells ([1]; 21 DDC): ~10%
time of initiation of neurogenesis (first neurons) [1]: around 17 DDC
identity of ventral midbrain progenitors (EN1) ([2]; 14DDC): a majority of LMX1A^+/OTX2^+ cells also expressed EN1
EN1 expression in TH+ dopamine neurons ([2]; 40DDC): a large fraction of TH^+ dopamine neurons expressed EN1

CC1(C)CCC(C)(C)c2cc(C#Cc3ccc(C(=O)O)cc3)ccc21 [EC23]
identity imposed by EC23 (hPSC-derived NSCs; 200 nM EC23, EC23^1D+SAG or EC23^2D+SAG, with or without inhibition of CYP26): PHOX2B^+ HB-identity; also recorded: hindbrain identity
EC23 concentration imposing a vMB-identity (hPSC-derived NSCs; FIG. 9c titration): 10 nM
duration of EC23 treatment required to induce LMX1A+/NKX2.1− vMB cells (hPSC-derived NSCs; reduced EC23 concentration): 24 h
reduction in concentration required for EC23 to induce LMX1A+/NKX2.1− vMB cells (hPSC-derived NSCs; titration, relative to 200 nM, treatment for 24 hours): 20 fold

CC1=C(/C=C/C(C)=C\C=C\C(C)=C\C(=O)O)C(C)(C)CCC1 [9-cis RA, 9-cis-Retinoic acid]
identity imposed by RA analogue with inhibition of CYP26 activity (hPSC-derived NSCs): shift into a PHOX2B^+ HB identity
identity imposed by RA analogue (hPSC-derived NSCs): LMX1A^+/NKX2.1^− vMB identity; also recorded: LMX1A+/NKX2.1− vMB identity
susceptibility to CYP26-mediated oxidation (CYP26): substrates for CYP26-mediated oxidation

CC1=C(/C=C/C(C)=C/C=C/C(C)=C\C(=O)O)C(C)(C)CCC1 [13-cis RA, 13-cis-Retinoic acid]
identity imposed by RA analogue with inhibition of CYP26 activity (hPSC-derived NSCs): shift into a PHOX2B^+ HB identity
identity imposed by RA analogue (hPSC-derived NSCs): LMX1A^+/NKX2.1^− vMB identity; also recorded: LMX1A+/NKX2.1− vMB identity
susceptibility to CYP26-mediated oxidation (CYP26): substrates for CYP26-mediated oxidation

CC1(C)CCSc2ccc(C#Cc3ccc(C(=O)O)cn3)cc21 [tazarotenic acid]
identity imposed by RA analogue with inhibition of CYP26 activity (hPSC-derived NSCs): shift into a PHOX2B^+ HB identity
identity imposed by RA analogue (hPSC-derived NSCs): LMX1A^+/NKX2.1^− vMB identity; also recorded: LMX1A+/NKX2.1− vMB identity
susceptibility to CYP26-mediated oxidation (CYP26): substrates for CYP26-mediated oxidation

CCC(CC)C(c1ccc(Nc2nc3ccccc3s2)cc1)n1cncn1 (stereo not shown) [R115866]
identity of cells after inhibiting CYP26 activity (hPSC-derived NSCs; 100 nM R115866, RA+SAG cultures): mix of LMX1A^+/NKX2.1^− vMB cells and PHOX2B^+ HB cells
identity of cells after inhibiting CYP26 activity (hPSC-derived NSCs; 500 nM R115866 between 0-3 DDC, RA^1D+SAG or RA^2D+SAG cultures): PHOX2B^+ HB-identity
identity of cells after inhibiting CYP26 activity (hPSC-derived NSCs; R115866 and SAG only (no RA)): did not suppress NKX2.1^+ FB-fate

CNC1CCC(N(Cc2cccc(-c3ccncc3)c2)C(=O)c2sc3ccccc3c2Cl)CC1 (stereo not shown) [SAG]
SAG concentration for effective induction of vMB NSC identity (hPSC-derived NSCs; dSMADi, SAG from day 0, 9 DDC): 50 nM
